Read-outs that look alike come from different tables or passages of the source. Bounds are passed on as bounds.

Experiment [1] has as its system MV4:11 human cancer cell lines. Kind of experiment: Anti-proliferative activity, CellTiter-Glo viability assay, 7 day protocol. The class given is cell-based. Particulars: Homo sapiens, MV4-11, 168 h, MV4:11 cells, 7 day incubation, read-out: GI50 on cellular proliferation of MV4:11 human cancer cell lines. In a few lines: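 Luminescent CellTiter-Glo readout after 7-day compound exposure of MV4:11 cells plated at 3600 cells/ml (final DMSO 0.1%). GI50 derived from three biological × three technical replicates, reported as mean ± S.E.M.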

The target of a further experiment is WDR5 (Homo sapiens (Human), UniProt P61964). Kind of experiment: TR-FRET binding assay (displacement of 10mer-Thr-FAM probe from WDR5). (In general: Time-resolved FRET reads energy transfer from a long-lived donor to a nearby acceptor.)
Where [2] appears, read: read-out: Ki for Inhibition of WDR5 by TR-FRET assay, TR-FRET, 10mer-Thr-FAM probe, WDR5-His tag 2 nM, pH 7.0.
Setting [3] is: read-out: Ki for Inhibition of WDR5 by TR-FRET assay.

A word on the Ki: it is the equilibrium dissociation constant of an inhibitor or competing ligand from its target. As to `COc1cc(OC)cc(C(NC(=O)c2cc(Cn3ccn(C)c3=N)cc(-c3ccnn3C(C)C)c2)C2CC2)c1` (centres unmarked) [Example 118, N-(Cyclopropyl(3,5-dimethoxyphenyl)methyl)-3-((2-imino-3-methyl-2,3-dihydro-1H-imidazol-1-yl)methyl)-5-(1-isopropyl-1H-pyrazol-5-yl)benzamide], the GI50 in experiment [1] is 6300 nM. Further, on WDR5 (setting [2]), the Ki was found to be 0.83 nM.
As for `Cc1cc([C@@H](NC(=O)c2cc(Cn3ccn(C)c3=N)cc(-c3cccnc3C(F)(F)F)n2)C2CC2)ccc1F` [Example 119, (S)—N-(Cyclopropyl(4-fluoro-3-methylphenyl)methyl)-4-((2-imino-3-methyl-2,3-dihydro-1H-imidazol-1-yl)methyl)-2′-(trifluoromethyl)-[2,3′-bipyridine]-6-carboxamide], in experiment [1], the GI50 is 7600 nM. For the same compound, the inhibition constant Ki on WDR5 (setting [2]) was 0.16 nM.
Taken in the same sequence, the figures for `Cc1ccnc([C@@H](NC(=O)c2cc(Cn3ccn(C)c3=N)cc(-c3ccc(F)cc3C(F)(F)F)c2F)C2CC2)c1` [Example 120, (S)—N-(Cyclopropyl(4-methylpyridin-2-yl)methyl)-2,4′-difluoro-5-((2-imino-3-methyl-2,3-dihydro-1H-imidazol-1-yl)methyl)-2′-(trifluoromethyl)-[1,1′-biphenyl]-3-carboxamide] were 220 nM and less than 0.1 nM.
In the case of `CC(=O)/N=c1\n(C)ccn1Cc1cc(C(=O)NCc2ccc(Cl)c(Cl)c2)cc(-c2ccc(F)nc2C)c1` [Example 121, (E)-3-((2-(acetylimino)-3-methyl-2,3-dihydro-1H-imidazol-1-yl)methyl)-N-(3,4-dichlorobenzyl)-5-(6-fluoro-2-methylpyridin-3-yl)benzamide], the GI50 in experiment [1] turned out to be 5900 nM. Moreover, the Ki on WDR5 (setting [3]) is greater than 33 nM.
Taken in the same sequence, the figures for `CCOC(=O)/N=c1\n(C)ccn1Cc1cc(C(=O)NCc2ccc(Cl)c(Cl)c2)cc(-c2ccc(F)nc2C)c1` [Example 122, Ethyl (1-(3-((3,4-dichlorobenzyl)carbamoyl)-5-(6-fluoro-2-methylpyridin-3-yl)benzyl)-3-methyl-1,3-dihydro-2H-imidazol-2-ylidene)carbamate] were 4200 nM and greater than 33 nM.
In the case of `Cc1cc([C@@H](NC(=O)c2cc(Cn3ccn(C)c3=N)cc(-c3cn(C)nc3C(F)(F)F)c2)C2CC2)ccc1F` [Example 125, (S)—N-(Cyclopropyl(4-fluoro-3-methylphenyl)methyl)-3-((2-imino-3-methyl-2,3-dihydro-1H-imidazol-1-yl)methyl)-5-(1-methyl-3-(trifluoromethyl)-1H-pyrazol-4-yl)benzamide], the GI50 in experiment [1] turned out to be 180 nM. Also, the Ki on WDR5 is less than 0.1 nM.
Take `Cc1cc([C@@H](NC(=O)c2cc(Cn3ccn(C)c3=N)cc(-c3cccnc3OC(F)F)c2)C2CC2)ccc1F` [Example 127, (S)—N-(Cyclopropyl(4-fluoro-3-methylphenyl)methyl)-3-(2-(difluoromethoxy)pyridin-3-yl)-5-((2-imino-3-methyl-2,3-dihydro-1H-imidazol-1-yl)methyl)benzamide]: in experiment [1], the GI50 is 730 nM. Moreover, the Ki at WDR5 (setting [2]) worked out at 0.21 nM.
Taken in the same sequence, the figures for `Cc1cc([C@@H](NC(=O)c2cc(Cn3ccn(C)c3=N)cc(-c3cccnc3C(F)(F)F)c2F)C2CC2)ccc1F` [Example 131, (S)—N-(Cyclopropyl(4-fluoro-3-methylphenyl)methyl)-2-fluoro-5-((2-imino-3-methyl-2,3-dihydro-1H-imidazol-1-yl)methyl)-3-(2-(trifluoromethyl)pyridin-3-yl)benzamide] were 140 nM and less than 0.1 nM.
Taken in the same sequence, the figures for `Cc1ccnc([C@@H](NC(=O)c2cc(Cn3ccn(C)c3=N)cc(-c3cccnc3C(F)(F)F)c2F)C2CC2)c1` [Example 132, (S)—N-(Cyclopropyl(4-methylpyridin-2-yl)methyl)-2-fluoro-5-((2-imino-3-methyl-2,3-dihydro-1H-imidazol-1-yl)methyl)-3-(2-(trifluoromethyl)pyridin-3-yl)benzamide] were 610 nM and 0.13 nM.
Regarding `Cc1cc([C@@H](NC(=O)c2cc(Cn3ccn(C)c3=N)cc(C3CC3)c2)C2CC2)ccc1F` [Example 139, (S)-3-Cyclopropyl-N-(cyclopropyl(4-fluoro-3-methylphenyl)methyl)-5-((2-imino-3-methyl-2,3-dihydro-1H-imidazol-1-yl)methyl)benzamide], the GI50 in experiment [1] was determined as 730 nM. For the same compound, the Ki on WDR5 (setting [3]) was 0.18 nM.
Regarding `Cc1cc([C@@H](NC(=O)c2cc(Cn3ccn(C4CC4)c3=N)cc(-c3ccc(F)cc3Cl)c2)C2CC2)ccc1F` [Example 141, (S)-2′-Chloro-N-(cyclopropyl(4-fluoro-3-methylphenyl)methyl)-5-((3-cyclopropyl-2-imino-2,3-dihydro-1H-imidazol-1-yl)methyl)-4′-fluoro-[1,1′-biphenyl]-3-carboxamide], in experiment [1], the GI50 is less than 100 nM. Also, the Ki at WDR5 (setting [2]) was less than 0.1 nM.
As for `Cc1cc([C@@H](NC(=O)c2cc(Cn3ccn(C4CC4)c3=N)cc(-c3cn(C)nc3C(F)(F)F)c2)C2CC2)ccc1F` [Example 142, (S)—N-(Cyclopropyl(4-fluoro-3-methylphenyl)methyl)-3-((3-cyclopropyl-2-imino-2,3-dihydro-1H-imidazol-1-yl)methyl)-5-(1-methyl-3-(trifluoromethyl)-1H-pyrazol-4-yl)benzamide], the GI50 in experiment [1] is less than 100 nM. The Ki on WDR5 (setting [2]) is less than 0.1 nM.
Turning to `Cc1cc([C@@H](NC(=O)c2cc(CN3CCN(C)C3=N)cc(-c3cccnc3C(F)(F)F)c2)C2CC2)ccc1F` [Example 143, (S)—N-(Cyclopropyl(4-fluoro-3-methylphenyl)methyl)-3-((2-imino-3-methylimidazolidin-1-yl)methyl)-5-(2-(trifluoromethyl)pyridin-3-yl)benzamide], the GI50 in experiment [1] was 170 nM. Further, on WDR5 (setting [3]), the Ki is less than 0.1 nM.
In the case of `Cc1cc(CNC(=O)c2cc(Cn3ccn(C)c3=N)cc(OC(F)(F)F)c2)ccc1Cl` [Example 147, N-(4-Chloro-3-methylbenzyl)-3-((2-imino-3-methyl-2,3-dihydro-1H-imidazol-1-yl)methyl)-5-(trifluoromethoxy)benzamide], the GI50 in experiment [1] was 840 nM. At WDR5 (setting [2]), the Ki was 0.37 nM.
As for `Cc1cc([C@@H](NC(=O)c2cc(Cn3ccn(C)c3=N)cc(-c3ccc(F)cc3C(F)F)c2)C2CC2)ccc1F` [Example 154, (S)—N-(Cyclopropyl(4-fluoro-3-methylphenyl)methyl)-2′-(difluoromethyl)-4′-fluoro-5-((2-imino-3-methyl-2,3-dihydro-1H-imidazol-1-yl)methyl)-[1,1′-biphenyl]-3-carboxamide], the GI50 in experiment [1] is 120 nM. For the same compound, the Ki at WDR5 (setting [2]) was less than 0.1 nM.
Take `Cc1cc([C@@H](NC(=O)c2cc(Cn3ccn(C4CC4)c3=N)cc(-c3ccc(F)cc3OC(F)F)c2)C2CC2)ccc1F` [Example 156, (S)—N-(cyclopropyl(4-fluoro-3-methylphenyl)methyl)-5-((3-cyclopropyl-2-imino-2,3-dihydro-1H-imidazol-1-yl)methyl)-2′-(difluoromethoxy)-4′-fluoro-[1,1′-biphenyl]-3-carboxamide]: in experiment [1], the GI50 was found to be 470 nM. The Ki at WDR5 (setting [2]) is less than 0.1 nM.

(Values after patent US10844044B2 (Vanderbilt University, priority 2018, dated 2020).)
